Results taken from paper PMC10143423, “Endoplasmic Reticulum-Targeting Two-Photon Fluorescent Probe for CYP1A Activity and Its Imaging Application in Endoplasmic Reticulum Stress” (Molecules, 2023).

Legend:
[1] = system: recombinant human CYP isoenzymes; assay: Fluorescence response of ERNM toward various recombinant human CYPs; format: biochemical; conditions: CYPs 15 nM, ERNM 10 μM, 30 min, 37 °C, fluorescence 558 nm
Method: The incubation sample consisted of NADPH-generating system (including NADP^+, magnesium chloride, glucose-6-phosphate, and glucose-6-phosphate dehydrogenase), and human liver microsomes or recombinant human CYP enzyme in potassium phosphate buffer (100 mM, pH 7.4). The total volume of the incubation mixture is 200 μL. Fluorescent substrate was dissolved in DMSO, and was pre-diluted to the working concentrations. If necessary, blank samples without NADPH or without enzymes will be set up as negative controls. The incubation reaction was initiated by adding NADP^+ after pre-incubation at 37 °C for 3 min. […]
To reveal the enzyme specificity for ERNM, the human recombinant CYP enzymes including CYP1A1, CYP1A2, CYP1B1, CYP2A6, CYP2A13, CYP2B6, CYP2C8, CYP2C9, CYP2C18, CYP2C19, CYP2D6, CYP2E1, CYP2J2, CYP3A4, CYP3A5, CYP4A11, CYP4F2, CYP4F3, and CYP4F12 (15 nM) were incubated with ERNM (the in-system concentration of ERNM in the incubation system is 10 μM) in 200 μL of the incubation mixture in the presence of NADPH-generating systems. After incubation for 30 min at 37 °C, the dealkylated metabolite was measured by quantifying the intensity of fluorescence signal at 558 nm that was excited at 450 nm. Data were analyzed using GraphPad Prism 8.0 (GraphPad Software, Inc., San Diego, CA, USA).

CYP1A2 = target: T1, CYP1A2 (Homo sapiens, UniProt P05177); assay: ERNM O-demethylation enzyme kinetics in recombinant CYP1A2; format: biochemical
T1 construct: purchased BD Biosciences (Woburn, MA, USA)
T1 sequence (P05177 1-516): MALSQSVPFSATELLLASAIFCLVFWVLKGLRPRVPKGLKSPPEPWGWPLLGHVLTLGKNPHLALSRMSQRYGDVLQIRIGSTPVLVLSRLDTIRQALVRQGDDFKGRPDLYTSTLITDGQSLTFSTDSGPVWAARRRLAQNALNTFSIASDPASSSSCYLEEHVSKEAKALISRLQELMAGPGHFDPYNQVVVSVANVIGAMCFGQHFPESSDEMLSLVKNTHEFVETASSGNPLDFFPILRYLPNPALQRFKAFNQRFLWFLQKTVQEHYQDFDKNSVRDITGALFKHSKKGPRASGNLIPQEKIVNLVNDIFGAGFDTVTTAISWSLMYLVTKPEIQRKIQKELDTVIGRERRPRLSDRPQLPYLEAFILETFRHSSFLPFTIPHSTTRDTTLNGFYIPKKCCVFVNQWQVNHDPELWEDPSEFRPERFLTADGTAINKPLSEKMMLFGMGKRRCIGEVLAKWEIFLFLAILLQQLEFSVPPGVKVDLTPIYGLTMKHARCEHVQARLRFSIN
Method: (§1) The incubation sample consisted of NADPH-generating system (including NADP^+, magnesium chloride, glucose-6-phosphate, and glucose-6-phosphate dehydrogenase), and human liver microsomes or recombinant human CYP enzyme in potassium phosphate buffer (100 mM, pH 7.4). The total volume of the incubation mixture is 200 μL. Fluorescent substrate was dissolved in DMSO, and was pre-diluted to the working concentrations. If necessary, blank samples without NADPH or without enzymes will be set up as negative controls. The incubation reaction was initiated by adding NADP^+ after pre-incubation at 37 °C for 3 min. In addition, ice acetonitrile (100 µL) was added into the incubation samples for terminating the reaction progress. Briefly, CYP1A1 (5 nM) or CYP1A2 (5 nM) were incubated with ERNM (1, 5, 10, 15, 50, 100, 200 μM) in 200 μL of the incubation mixture in the presence of NADPH-generating systems. After incubation for 30 min, the dealkylated metabolite was measured by quantifying the intensity of fluorescence signal at 558 nm that was excited at 450 nm. Data were analyzed using GraphPad Prism 8.0 (GraphPad Software, Inc., San Diego, CA, USA).

CYP1A1 = target: T2, CYP1A1 (Homo sapiens, UniProt P04798); assay: ERNM O-demethylation enzyme kinetics in recombinant CYP1A1; format: biochemical
T2 construct: purchased BD Biosciences (Woburn, MA, USA)
T2 sequence (P04798 1-512): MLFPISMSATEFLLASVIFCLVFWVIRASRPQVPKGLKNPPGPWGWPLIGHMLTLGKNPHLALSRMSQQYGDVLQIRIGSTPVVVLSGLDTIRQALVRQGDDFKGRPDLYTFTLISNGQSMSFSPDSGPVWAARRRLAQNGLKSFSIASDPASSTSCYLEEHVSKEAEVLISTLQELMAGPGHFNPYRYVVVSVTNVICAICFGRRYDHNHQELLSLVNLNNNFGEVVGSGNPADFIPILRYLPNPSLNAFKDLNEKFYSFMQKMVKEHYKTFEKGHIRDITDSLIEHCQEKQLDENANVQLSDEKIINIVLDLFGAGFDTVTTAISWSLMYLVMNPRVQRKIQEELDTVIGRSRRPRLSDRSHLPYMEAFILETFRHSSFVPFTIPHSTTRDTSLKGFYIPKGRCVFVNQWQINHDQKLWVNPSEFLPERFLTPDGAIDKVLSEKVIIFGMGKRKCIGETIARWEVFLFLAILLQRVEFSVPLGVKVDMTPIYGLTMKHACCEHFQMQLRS
Method: as §1

A549 cells [2] = assay: Colocalization of ERNM with ER-Tracker in living cells; format: cell-based; conditions: co-incubated with ER-Tracker Red, two-photon excitation
Method: The systematic evaluation of ERNM confirmed its application in complex biosystems, subsequent work is related to the investigation of the subcellular localization of ERNM in living cells. Briefly, ERNM was co-incubated with a commercial ER-Tracker (red) in A549 cells, and then imaged under two-photon (ERNM) and single-photon (ER-Tracker) excitation conditions using confocal fluorescence microscope.
(§2) A549 cells were grown in RPMI-1640 culture medium (containing 10% FBS). A549 cells were seeded and incubated at 37 °C overnight. Then, A549 cells divided into different experimental groups were treated with DTT (dithiothreitol, the in-system concentration of DTT in the incubation system is 2.5 mM) for 0, 1, 2, and 4 h. The adherent cells were washed, and ERNM was added into the cell culture media (the in-system concentration of ERNM in the incubation system is 25 μM) and incubated for 60 min. Then, the cells were rinsed with PBS for at least 3 times to remove the extracellular probe. The cell images were obtained using confocal microscope (Olympus, FV1000), and the excitation wavelength was set at 800 nm and fluorescent emission windows of 520–560 nm.

A549 cells [3] = assay: CYP1A activity imaged by ERNM in DTT-induced ER stress cell model; format: cell-based; conditions: DTT 2.5 mM for 0, 1, 2, 4 h, imaged with ERNM 25 μM
Method: as §2

CYP1A = assay: Inhibition of ERNM O-demethylation in human liver microsomes by selective CYP inhibitors; format: biochemical; conditions: inhibitor 2.5 μM, ERNM 10 μM, HLM, fluorescence 558 nm
Method: The incubation mixture is 200 μL. […] Inhibition by TEPA for CYP2B6 were examined by adding ERNM after pre-incubation with NADPH-generating system at 37 °C for 30 min. […] In addition, the residual activity of samples was calculated by the percentage of fluorescence signal for the chemical inhibition group to the control group, with the absence of specific inhibitors. Data were analyzed using GraphPad Prism 8.0 (GraphPad Software, Inc., San Diego, CA, USA).

[4] = substrate: COc1ccc2c3c(cccc13)C(=O)N(CCNS(=O)(=O)c1ccc(C)cc1)C2=O; assay: ERNM O-demethylation enzyme kinetics in recombinant CYP1A2; format: biochemical, human; conditions: other: CYP1A2 5 nM, ERNM 1-200 μM, 30 min, fluorescence 558 nm; pH 7.4; 37.0 °C
Method: as §1

[5] = substrate: COc1ccc2c3c(cccc13)C(=O)N(CCNS(=O)(=O)c1ccc(C)cc1)C2=O; assay: ERNM O-demethylation enzyme kinetics in recombinant CYP1A1; format: biochemical, human; conditions: other: CYP1A1 5 nM, ERNM 1-200 μM, 30 min, fluorescence 558 nm; pH 7.4; 37.0 °C
Method: as §1

[6] = substrate inhibition constant, Table S1

COc1ccc2c3c(cccc13)C(=O)N(CCNS(=O)(=O)c1ccc(C)cc1)C2=O [ERNM]
Selectivity of fluorescence response among CYP isoenzymes [1]: CYP1A1/1A2 mediated the generation of fluorescence signals at 558 nm over other CYP isoenzymes
Vmax for demethylation catalyzed by CYP1A2 (CYP1A2; CYP1A2 5 nM, ERNM 1-200 μM, 30 min): 3.32 ± 0.15 nmol/min/nmol P450
Kinetic behavior of CYP1A2 mediated demethylation (CYP1A2; kinetic plot, Figure S5): kinetics of substrate inhibition
Ksi of ERNM O-demethylation in CYP1A2 (CYP1A2; [6]): 281.2 ± 50.2 µM
Vmax for demethylation catalyzed by CYP1A1 (CYP1A1; CYP1A1 5 nM, ERNM 1-200 μM, 30 min): 1.92 ± 0.04 nmol/min/nmol P450
Kinetic behavior of CYP1A1 mediated demethylation (CYP1A1; kinetic plot, Figure S5): kinetics of substrate inhibition
Ksi of ERNM O-demethylation in CYP1A1 (CYP1A1; [6]): 611.3 ± 93.8 µM
Subcellular localization (overlap with ER-Tracker) (A549 cells [2]): exclusively target the ER

O[C@@H](CS)[C@@H](O)CS (racemic) [DTT, dithiothreitol]
Time at which CYP1A activity reached the peak (A549 cells [3]): 2 h

O=c1cc(-c2ccccc2)oc2c1ccc1ccccc12 [α-naphthoflavone]
Effect on generation of the ERNM fluorescence signal in human liver microsomes (CYP1A): sufficiently suppressed

B1: CYP1A2 (Homo sapiens) (protein)
chain: T1 sequence (P05177 1-516)
notes: purchased BD Biosciences (Woburn, MA, USA)
Km [4]: 2.9 ± 0.5 µM
kcat [4]: 3.32 ± 0.15 nmol/min/nmol P450

B2: CYP1A1 (Homo sapiens) (protein)
chain: T2 sequence (P04798 1-512)
notes: as for B1
Km [5]: 1.0 ± 0.1 µM
kcat [5]: 1.92 ± 0.04 nmol/min/nmol P450
